Results published in patent US4975370A, “Process for preparing 14-hydroxy-6-O-methyl-erythromycin A” (Taisho Pharmaceutical Co., Ltd., priority 1986, dated 1990).
Values after ≈ are worked out from the molar mass of the structure shown.

Legend:
Staphylococcus aureus BB [1] = experiment: In vivo antibacterial test, experimental infection in mouse; conditions: Staphylococcus aureus BB infection (intraperitoneal), male ICR mice 26±1 g, drug orally, 7 days observation, probit analysis
Protocol: (§1) The in vivo antibacterial activity of 14-hydroxy-6-O-methylerythromycin A was measured by effect of treatment on experimental infectious diseases in mouse. 6-O-methylerythromycin A and erythromycin A were used as comparative drugs. Staphylococcus aureus BB and Streptococcus pneumoniae IID 553 were used as experimental infectious diseases of mouse. Ten male ICR mice, weighing 26±1 g, were used for each group to a different concentration of one drug. The bacteria were administered intraperitoneally to each groups of […] for infection. 14-hydroxy-6-O-methylerythromycin A, 6-O-methylerythromycin A and erythromycin A were administered orally to different groups of mice. After observing for 7 days, ED50 value was calculated from the number of mice serviving.
(§2) The ED50 values having 95% confidence limits were estimated by probit analysis.

[2] = test system: Streptococcus pneumoniae IID 553; experiment: as above; conditions: Streptococcus pneumoniae IID 553 infection (intraperitoneal), male ICR mice 26±1 g, drug orally, 7 days observation, probit analysis
Protocol: as §1, §2

[3] = test system: Bacillus subtilis ATCC 6633; experiment: In vitro antibacterial activity (MIC method of the Japan Chemotherapeutic Society); assay type: cell-based; conditions: ATCC6633, read-out: MIC (minimum inhibitory concentration)
Protocol: (§3) The antibacterial activity (MIC: minimum inhibitory concentration) of 14-hydroxy-6-O-methylerythromycin A was measured according to the MIC method specified by the Japan Chemotherapeutic Society.

Branhamella catarrhalis = experiment: as above; assay type: cell-based; conditions: Moraxella catarrhalis, read-out: MIC (minimum inhibitory concentration)
Protocol: as §3

[4] = test system: Enterococcus faecalis ATCC 8043; experiment: as above; assay type: cell-based; conditions: ATCC8043, read-out: MIC (minimum inhibitory concentration)
Protocol: as §3

[5] = test system: Escherichia coli NIHJ JC-2; experiment: as above; assay type: cell-based; conditions: NIHJJC2, read-out: MIC (minimum inhibitory concentration)
Protocol: as §3

[6] = test system: Haemophilus influenzae J-48; experiment: as above; assay type: cell-based; conditions: J48, read-out: MIC (minimum inhibitory concentration)
Protocol: as §3

[7] = test system: Klebsiella pneumoniae IFO 3317; experiment: as above; assay type: cell-based; conditions: IFO3317, read-out: MIC (minimum inhibitory concentration)
Protocol: as §3

[8] = test system: Micrococcus luteus ATCC 9341; experiment: as above; assay type: cell-based; conditions: ATCC9341, read-out: MIC (minimum inhibitory concentration)
Protocol: as §3

Micrococcus luteus NIHJ = experiment: as above; assay type: cell-based; conditions: read-out: MIC (minimum inhibitory concentration)
Protocol: as §3

[9] = test system: Neisseria gonorrhoeae TCC-4; experiment: as above; assay type: cell-based; conditions: TCC4, read-out: MIC (minimum inhibitory concentration)
Protocol: as §3

Salmonella enteritidis = experiment: as above; assay type: cell-based; conditions: Salmonella enterica, read-out: MIC (minimum inhibitory concentration)
Protocol: as §3

[10] = test system: Staphylococcus aureus 209P-JC; experiment: as above; assay type: cell-based; conditions: read-out: MIC (minimum inhibitory concentration)
Protocol: as §3

Staphylococcus aureus BB [11] = experiment: as above; assay type: cell-based; conditions: read-out: MIC (minimum inhibitory concentration)
Protocol: as §3

[12] = test system: Staphylococcus aureus Smith 4; experiment: as above; assay type: cell-based; conditions: SMITH4, read-out: MIC (minimum inhibitory concentration)
Protocol: as §3

[13] = test system: Staphylococcus epidermidis IID 866; experiment: as above; assay type: cell-based; conditions: IID866, read-out: MIC (minimum inhibitory concentration)
Protocol: as §3

[14] = test system: Staphylococcus pneumoniae IDD 552; experiment: as above; assay type: cell-based; conditions: IDD552, read-out: MIC (minimum inhibitory concentration)
Protocol: as §3

[15] = test system: Staphylococcus pneumoniae IDD 553; experiment: as above; assay type: cell-based; conditions: IDD553, read-out: MIC (minimum inhibitory concentration)
Protocol: as §3

[16] = test system: Staphylococcus pyogenes IID 689; experiment: as above; assay type: cell-based; conditions: Streptococcus pyogenes, IID689, read-out: MIC (minimum inhibitory concentration)
Protocol: as §3

Gram-positive bacteria [17] = experiment: In vivo antibacterial activity (general statement, effective amount)
[18] = Acute toxicity (LD50) in ICR mice; conditions: mouse, in vivo, intravenous administration
Solubility = assay type: physicochemical
Gram-positive bacteria [19] = experiment: In vitro antibacterial activity (general statement); assay type: cell-based
[20] = test system: Gram-negative bacteria, especially Neisseria gonorroeae and Haemophilus influenzae; experiment: as above; assay type: cell-based; conditions: some Gram-negative bacteria

CC[C@H]1OC(=O)[C@H](C)[C@@H](O[C@H]2C[C@@](C)(OC)[C@@H](O)[C@H](C)O2)[C@H](C)[C@@H](O[C@@H]2O[C@H](C)C[C@H](N(C)C)[C@H]2O)[C@](C)(OC)C[C@@H](C)C(=O)[C@H](C)[C@@H](O)[C@]1(C)O [6-O-Methyl-erythromycin A, 6-O-methylerythromycin A]
ED50 (Staphylococcus aureus BB [1]): 0.394 mg/mouse | ED50 [2]: 0.222 mg/mouse

CO[C@]1(C)C[C@@H](C)C(=O)[C@H](C)[C@@H](O)[C@](C)(O)[C@@H](C(C)O)OC(=O)[C@H](C)[C@@H](O[C@H]2C[C@@](C)(OC)[C@@H](O)[C@H](C)O2)[C@H](C)[C@H]1O[C@@H]1O[C@H](C)C[C@H](N(C)C)[C@H]1O (stereo partly drawn) [14-hydroxy-6-O-methylerythromycin A]
MIC [3]: 0.1 µg/mL (≈ 0.131 µM) | MIC (Branhamella catarrhalis): 0.05 µg/mL (≈ 0.0654 µM) | MIC [4]: 0.05 µg/mL (≈ 0.0654 µM) | MIC [5]: 50 µg/mL (≈ 65.4 µM) | MIC [6]: 3.13 µg/mL (≈ 4.1 µM) | MIC [7]: 25 µg/mL (≈ 32.7 µM) | MIC [8]: 0.025 µg/mL (≈ 0.0327 µM) | MIC (Micrococcus luteus NIHJ): 0.05 µg/mL (≈ 0.0654 µM) | MIC [9]: 0.39 µg/mL (≈ 0.51 µM) | MIC (Salmonella enteritidis): 25 µg/mL (≈ 32.7 µM) | MIC [10]: 0.1 µg/mL (≈ 0.131 µM) | MIC (Staphylococcus aureus BB [11]): 0.2 µg/mL (≈ 0.262 µM) | MIC [12]: 0.2 µg/mL (≈ 0.262 µM) | MIC [13]: 0.2 µg/mL (≈ 0.262 µM) | MIC [14]: 0.025 µg/mL (≈ 0.0327 µM) | MIC [15]: 0.025 µg/mL (≈ 0.0327 µM) | MIC [16]: 0.025 µg/mL (≈ 0.0327 µM) | ED50 (Staphylococcus aureus BB [1]): 0.234 mg/mouse | ED50 [2]: 0.069 mg/mouse | in vivo antibacterial activity against some Gram-positive bacteria (Gram-positive bacteria [17]; compared with 6-O-methylerythromycin A): stronger | ED50 (Gram-positive bacteria [17]; general statement): 3 to 10 mg/kg | LD50 [18]: 560 mg/kg | Solubility (Solubility; in chloroform, methanol, ethanol, acetone, ethyl acetate and pyridine): Soluble | Solubility (Solubility; in ethyl ether, n-hexane, petroleum ether, benzene and water): Poorly soluble | in vitro antibacterial activity (Gram-positive bacteria [19]): strong | in vitro antibacterial activity [20]: strong

CC[C@H]1OC(=O)[C@H](C)[C@@H](O[C@H]2C[C@@](C)(OC)[C@@H](O)[C@H](C)O2)[C@H](C)[C@@H](O[C@@H]2O[C@H](C)C[C@H](N(C)C)[C@H]2O)[C@](C)(O)C[C@@H](C)C(=O)[C@H](C)[C@@H](O)[C@]1(C)O [Erythromycin A, erythromycin A]
ED50 (Staphylococcus aureus BB [1]): 2.20 mg/mouse | ED50 [2]: 1.43 mg/mouse
